According to patent US9611264B1, “N-[2-(3-amino-2,5-dimethyl-1,1-dioxido-5,6-dihydro-2H-1,2,4-thiadiazin-5-yl)-1,3-thiazol-4-yl] amides” (Pfizer Inc., priority 2015, dated 2017):
Counter-ions that a name gives are not always drawn.

These molecules were tested against T1, BACE1 enzyme (Homo sapiens, UniProt P56817) (assay: BACE1 Cell-Free Assay (fluorescence polarization, cleavage of synthetic APP substrate)). Settings: geometric mean of 2-4 determinations unless otherwise indicated (b: ≧5 determinations; c: single determination); 0.1 nM BACE1, 150 nM peptide substrate, pH 4.5, 3 hours at 37° C.
T1 construct: transfected with a soluble BACE construct (BACE1deltaTM96His); His (C); made in house; host or cells: CHO-K1 cells (secreted into conditioned media)
T1 sequence (P56817 46-457 limits assumed): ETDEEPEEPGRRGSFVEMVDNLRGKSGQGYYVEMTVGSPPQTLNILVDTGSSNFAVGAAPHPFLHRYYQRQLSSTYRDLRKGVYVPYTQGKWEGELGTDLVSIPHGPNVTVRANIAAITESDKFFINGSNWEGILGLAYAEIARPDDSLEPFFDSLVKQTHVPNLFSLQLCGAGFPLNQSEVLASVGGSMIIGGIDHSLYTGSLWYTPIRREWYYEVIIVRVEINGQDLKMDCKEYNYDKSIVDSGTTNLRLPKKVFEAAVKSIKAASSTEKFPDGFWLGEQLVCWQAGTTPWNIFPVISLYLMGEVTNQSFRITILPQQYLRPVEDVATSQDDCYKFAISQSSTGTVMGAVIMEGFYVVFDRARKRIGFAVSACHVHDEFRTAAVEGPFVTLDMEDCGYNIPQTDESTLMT
Format: biochemical
Source text: Beta-secretase (BACE) is one of the enzymes involved in the generation of the amyloid beta peptide found in the amyloid plaques of Alzheimer's disease patients. This assay measures the inhibition of the beta-secretase enzyme as it cleaves a non-native peptide.
A synthetic APP substrate that can be cleaved by beta-secretase having N-terminal biotin and made fluorescent by the covalent attachment of Oregon Green at the Cys residue is used to assay beta-secretase activity in the presence or absence of the inhibitory compounds. The substrate is Biotin-GLTNIKTEEISEISY^EVEFR-C[Oregon Green]KK-OH. The BACE1 enzyme is affinity purified material from conditioned media of CHO-K1 cells that have been transfected with a soluble BACE construct (BACE1deltaTM96His). Compounds are incubated in a ½ log dose response curve from a top concentration of 100 μM with BACE1 enzyme and the biotinylated fluorescent peptide in 384-well black plates (Thermo Scientific #4318). BACE1 is at a final concentration of 0.1 nM with a final concentration of peptide substrate of 150 nM in a reaction volume of 30 μL assay buffer [100 mM sodium acetate, pH 4.5 (brought to pH with acetic acid), and 0.001% Tween-20]. Plates are covered and incubated for 3 hours at 37° C. The reaction is stopped with the addition of 30 μL of 1.5 μM Streptavidin (Pierce, #21125). After a 10 minute incubation at room temperature, plates are read on a PerkinElmer EnVision for fluorescence polarization (Ex485 nm/Em530 nm). The activity of the beta-secretase enzyme is detected by changes in the fluorescence polarization that occur when the substrate is cleaved by the enzyme.

IC50 [nM] | Structure (SMILES)
31200 | CN1C(N)=N[C@@](C)(c2nc(NC(=O)c3ccc(OC(F)F)cn3)cs2)[C@H](C2CC2)S1(=O)=O (single isomer, unassigned) [Example 3]
103 | CN1C(N)=N[C@](C)(c2nc(NC(=O)c3ccc(OC(F)F)cn3)cs2)[C@@H](C2CC2)S1(=O)=O (single isomer, unassigned) [Example 4]
51 | CN1C(N)=N[C@](C)(c2nc(NC(=O)c3ccc(OC(F)F)cn3)cs2)[C@H](C2CC2)S1(=O)=O (single isomer, unassigned) [Example 5]
4400 | CN1C(N)=N[C@@](C)(c2nc(NC(=O)c3ccc(OC(F)F)cn3)cs2)C(C)(C)S1(=O)=O (single isomer, unassigned) [Example 7]
78 | CN1C(N)=N[C@](C)(c2nc(NC(=O)c3ccc(OC(F)F)cn3)cs2)C(C)(C)S1(=O)=O (single isomer, unassigned) [Example 8]
18000 | C[C@H]1[C@](C)(c2nc(NC(=O)c3ccc(OC(F)F)cn3)cs2)N=C(N)N(C)S1(=O)=O (single isomer, unassigned) [Example 10]
136 | C[C@@H]1[C@@](C)(c2nc(NC(=O)c3ccc(OC(F)F)cn3)cs2)N=C(N)N(C)S1(=O)=O (single isomer, unassigned) [Example 11]
88 | C[C@H]1[C@@](C)(c2nc(NC(=O)c3ccc(OC(F)F)cn3)cs2)N=C(N)N(C)S1(=O)=O (single isomer, unassigned) [Example 12]
33800 | C[C@@H]1[C@](C)(c2nc(NC(=O)c3ccc(OC(F)F)cn3)cs2)N=C(N)N(C)S1(=O)=O (single isomer, unassigned) [Example 13]
60 | CN1C(N)=N[C@](C)(c2nc(NC(=O)c3ccc(OC(F)F)cn3)cs2)CS1(=O)=O [Example 1, N-{2-[(5S)-3-amino-2,5-dimethyl-1,1-dioxido-5,6-dihydro-2H-1,2,4-thiadiazin-5-yl]-1,3-thiazol-4-yl}-5-(difluoromethoxy)pyridine-2-carboxamide]
19 | CN1C(N)=N[C@](C)(c2nc(NC(=O)c3ccn(C(F)F)n3)cs2)CS1(=O)=O [Example 2, N-{2-[(5S)-3-amino-2,5-dimethyl-1,1-dioxido-5,6-dihydro-2H-1,2,4-thiadiazin-5-yl]-1,3-thiazol-4-yl}-1-(difluoromethyl)-1H-pyrazole-3-carboxamide]
185 | CN1C(N)=NC(C)(c2nc(NC(=O)c3ccc(OC(F)F)cn3)cs2)C(C)(C)S1(=O)=O (stereo not drawn) [Example 6, N-[2-(3-amino-2,5,6,6-tetramethyl-1,1-dioxido-5,6-dihydro-2H-1,2,4-thiadiazin-5-yl)-1,3-thiazol-4-yl]-5-(difluoromethoxy)pyridine-2-carboxamide]
29 | Cc1cc(OC(F)F)cnc1C(=O)Nc1csc([C@]2(C)CS(=O)(=O)N(C)C(N)=N2)n1 [Example 9, N-{2-[(5S)-3-amino-2,5-dimethyl-1,1-dioxido-5,6-dihydro-2H-1,2,4-thiadiazin-5-yl]-1,3-thiazol-4-yl}-5-(difluoromethoxy)-3-methylpyridine-2-carboxamide, methanesulfonic acid salt]
14200 | CC[C@H]1[C@](C)(c2nc(NC(=O)c3ccc(OC(F)F)cn3)cs2)N=C(N)N(C)S1(=O)=O [Example 14, N-{2-[(5R,6S)-3-amino-6-ethyl-2,5-dimethyl-1,1-dioxido-5,6-dihydro-2H-1,2,4-thiadiazin-5-yl]-1,3-thiazol-4-yl}-5-(difluoromethoxy)pyridine-2-carboxamide]
371 | CC[C@@H]1[C@@](C)(c2nc(NC(=O)c3ccc(OC(F)F)cn3)cs2)N=C(N)N(C)S1(=O)=O [Example 15, N-{2-[(5S,6R)-3-amino-6-ethyl-2,5-dimethyl-1,1-dioxido-5,6-dihydro-2H-1,2,4-thiadiazin-5-yl]-1,3-thiazol-4-yl}-5-(difluoromethoxy)pyridine-2-carboxamide]
3920 | CC[C@@H]1[C@](C)(c2nc(NC(=O)c3ccc(OC(F)F)cn3)cs2)N=C(N)N(C)S1(=O)=O [Example 16, N-{2-[(5R,6R)-3-amino-6-ethyl-2,5-dimethyl-1,1-dioxido-5,6-dihydro-2H-1,2,4-thiadiazin-5-yl]-1,3-thiazol-4-yl}-5-(difluoromethoxy)pyridine-2-carboxamide]
200 | CC[C@H]1[C@@](C)(c2nc(NC(=O)c3ccc(OC(F)F)cn3)cs2)N=C(N)N(C)S1(=O)=O [Example 17, N-{2-[(5S,6S)-3-amino-6-ethyl-2,5-dimethyl-1,1-dioxido-5,6-dihydro-2H-1,2,4-thiadiazin-5-yl]-1,3-thiazol-4-yl}-5-(difluoromethoxy)pyridine-2-carboxamide]
246 | CN1C(N)=N[C@](C)(c2nc(NC(=O)c3cnc(CF)cn3)cs2)CS1(=O)=O [Example 18, N-{2-[(5S)-3-amino-2,5-dimethyl-1,1-dioxido-5,6-dihydro-2H-1,2,4-thiadiazin-5-yl]-1,3-thiazol-4-yl}-5-(fluoromethyl)pyrazine-2-carboxamide]
172 | CN1C(N)=N[C@](C)(c2nc(NC(=O)c3cnc(C(F)F)cn3)cs2)CS1(=O)=O [Example 19, N-{2-[(5S)-3-amino-2,5-dimethyl-1,1-dioxido-5,6-dihydro-2H-1,2,4-thiadiazin-5-yl]-1,3-thiazol-4-yl}-5-(difluoromethyl)pyrazine-2-carboxamide]
42 | CN1C(N)=N[C@](C)(c2nc(NC(=O)c3ccc(Cl)cn3)cs2)CS1(=O)=O [Example 20, N-{2-[(5S)-3-amino-2,5-dimethyl-1,1-dioxido-5,6-dihydro-2H-1,2,4-thiadiazin-5-yl]-1,3-thiazol-4-yl}-5-chloropyridine-2-carboxamide]
11 | CN1C(N)=N[C@](C)(c2nc(NC(=O)c3coc(CF)n3)cs2)CS1(=O)=O [Example 21, N-{2-[(5S)-3-amino-2,5-dimethyl-1,1-dioxido-5,6-dihydro-2H-1,2,4-thiadiazin-5-yl]-1,3-thiazol-4-yl}-2-(fluoromethyl)-1,3-oxazole-4-carboxamide]
134 | CN1C(N)=N[C@](C)(c2nc(NC(=O)c3cnc(OCC(C)(F)F)cn3)cs2)CS1(=O)=O [Example 22, N-{2-[(5S)-3-amino-2,5-dimethyl-1,1-dioxido-5,6-dihydro-2H-1,2,4-thiadiazin-5-yl]-1,3-thiazol-4-yl}-5-(2,2-difluoropropoxy)pyrazine-2-carboxamide]
13 | CC#CCOc1cnc(C(=O)Nc2csc([C@]3(C)CS(=O)(=O)N(C)C(N)=N3)n2)cn1 [Example 23, N-{2-[(5S)-3-amino-2,5-dimethyl-1,1-dioxido-5,6-dihydro-2H-1,2,4-thiadiazin-5-yl]-1,3-thiazol-4-yl}-5-(but-2-yn-1-yloxy)pyrazine-2-carboxamide]
13 | CC#CCOc1ccc(C(=O)Nc2csc([C@]3(C)CS(=O)(=O)N(C)C(N)=N3)n2)nc1 [Example 24, N-{2-[(5S)-3-amino-2,5-dimethyl-1,1-dioxido-5,6-dihydro-2H-1,2,4-thiadiazin-5-yl]-1,3-thiazol-4-yl}-5-(but-2-yn-1-yloxy)pyridine-2-carboxamide]
23 | CN1C(N)=N[C@](C)(c2nc(NC(=O)c3ncc(OC(F)F)cc3Cl)cs2)CS1(=O)=O [Example 25, N-{2-[(5S)-3-amino-2,5-dimethyl-1,1-dioxido-5,6-dihydro-2H-1,2,4-thiadiazin-5-yl]-1,3-thiazol-4-yl}-3-chloro-5-(difluoromethoxy)pyridine-2-carboxamide]
45 | CN1C(N)=N[C@](C)(c2nc(NC(=O)c3ccc(C#N)cn3)cs2)CS1(=O)=O [Example 26, N-{2-[(5S)-3-amino-2,5-dimethyl-1,1-dioxido-5,6-dihydro-2H-1,2,4-thiadiazin-5-yl]-1,3-thiazol-4-yl}-5-cyanopyridine-2-carboxamide]
9 | Cc1cc(C#N)cnc1C(=O)Nc1csc([C@]2(C)CS(=O)(=O)N(C)C(N)=N2)n1 [Example 27, N-{2-[(5S)-3-amino-2,5-dimethyl-1,1-dioxido-5,6-dihydro-2H-1,2,4-thiadiazin-5-yl]-1,3-thiazol-4-yl}-5-cyano-3-methylpyridine-2-carboxamide]
